Results as given in article PMC8126241, “Active Components from Cassia abbreviata Prevent HIV-1 Entry by Distinct Mechanisms of Action” (International Journal of Molecular Sciences, 2021).
Where two headings read alike, the source gives them in different places.

Assays:
[1] = tested on: non-B HIV-1 primary clinical isolate #1; test: microbe, parasite or virus in culture; conditions: Human immunodeficiency virus 1, PBMC, 168 h, read-out: IC50 Clinical isolate #1
[2] = tested on: HIV-1 IIIB; test: microbe, parasite or virus in culture; conditions: Human immunodeficiency virus 1, IIIB, PBMC, 168 h, read-out: IC50 IIIB
[3] = tested on: HIV-1 ADA-M; test: microbe, parasite or virus in culture; conditions: Human immunodeficiency virus 1, PBMC, 168 h, read-out: IC50 ADA-M
[4] = tested on: non-B HIV-1 primary clinical isolate #2; test: microbe, parasite or virus in culture; conditions: Human immunodeficiency virus 1, PBMC, 168 h, read-out: IC50 Clinical isolate #2
[5] = tested on: HIV-1; test: microbe, parasite or virus in culture; type: cell-based; conditions: for Anti-HIV activity: piceatannol analogues, pseudotype and MTT assay; for IC50: Human immunodeficiency virus 1, read-out: IC50 anti-HIV-1 activity
Excerpt: (§1) Since molecular details of piceatannol interaction with its target(s) are currently not available, we performed a structure-activity relationship (SAR) study with the aim to understand the chemical and pharmacophoric features of piceatannol that are relevant for its anti-HIV activity. Seventeen chemical analogues of piceatannol (molecules 1–17, Figure 6) were designed and retrieved from commercial vendors and from an in-house library of natural products and their derivatives and tested in vitro against HIV-1 entry and HIV-1 infection using the pseudotype and the MTT assay, respectively. […] Besides, the two flavones hispidulin 14 and norartocarpetin 15, and the two styrene derivatives 16 and methyl ferulate 17 were tested.

[6] = Cytotoxicity of piceatannol analogues
Excerpt: as §1

[7] = tested on: HIV-1 gp120 / CD4 binding; test: CD4-gp120 interaction assay (ELISA); conditions: in-house ELISA
Experimental: Human soluble CD4 (sCD4) was immobilized in a 96-well plate by adding 100 ng sCD4 (R&D Systems, Belgium) in 100 μL PBS per well and incubated at 4 °C. After 24 h, the CD4 coated plate was washed with 1% BSA-PBS and blocked by adding 100μL 5% BSA-PBS per well for 1 h at 4 °C. The coated plate was then washed and incubated with or without drugs for 1 h at 4 °C. After washing, 100 ng HIV-1 gp120 protein (Fitzgerald, Acton, MA, USA) was added into the plate and kept for 1 h at 4 °C. The plate was washed, and anti-HIV-1 gp120 (Aalto Bio Reagents, Dublin, Ireland) (100 ng/100 μL PBS) was added. After 1 h, the plate was washed and anti-sheep HRP (Sigma, Belgium) (100 ng/100 μL PBS) was added. After 1 h incubation at 4 °C, 100 μL o-phenylenediamine dihydrochloride (OPD) (Thermo Fisher, Asse, Belgium) was added and incubated for 20 min in dark. One hundred microliters 0.5M H2SO4 was finally added to stop the reaction. OD492 and OD630 were measured by POLARstart Omega Plate Reader. OD492 − OD630 was calculated.

[8] = tested on: HIV-1 fusion; test: Fusion assay, HeLa-ENV-Lai with HeLa-P4-CXCR4-LTRLacZ cells; type: cell-based; conditions: Figure 8A
Experimental: Fusion inhibition was evaluated as previously described. Briefly, HeLa-ENV-Lai cells were pre-incubated with or without drugs for 2 h and added to HeLa-P4-CXCR4-LTRLacZ cells which were placed in a 96-well plate 1 day before. After 24 h, cells were washed with PBS and then incubated with 50 μL containing 0.5% NP-40 (Sigma, Belgium) for 15 min at room temperature. Fifty microliters chlorophenol red-β-D-galactopyranoside (CPRG) reagent (Roche, Sigma-Aldrich, Liège, Belgium) was then added into the plate. After 30 min incubation at room temperature in dark, β−galactosidase was assessed by measuring OD562 of the cells via POLARstar Omega plate reader (BMG Labtech, Ortenberg, Germany).

[9] = tested on: pseudotype virus pNL4.3ΔEnvLuc-HXB2; test: microbe, parasite or virus in culture; conditions: Human immunodeficiency virus 1, HXB2, read-out: IC50 HIV-1 entry
[10] = tested on: pseudotype virus pNL4.3ΔEnvLuc-HXB2; conditions: multi-dosing time assay, 2 h after spinoculation (post-infection)
[11] = target: T1, CCR5 (Homo sapiens, UniProt P51681); test: Binding competition with anti-CCR5 antibody 2D7; conditions: anti-CCR5 antibody 2D7, U373-CD4-CCR5 cells
T1 construct: host or cells: U373-CD4-CCR5 cells
T1 sequence (P51681 whole entry): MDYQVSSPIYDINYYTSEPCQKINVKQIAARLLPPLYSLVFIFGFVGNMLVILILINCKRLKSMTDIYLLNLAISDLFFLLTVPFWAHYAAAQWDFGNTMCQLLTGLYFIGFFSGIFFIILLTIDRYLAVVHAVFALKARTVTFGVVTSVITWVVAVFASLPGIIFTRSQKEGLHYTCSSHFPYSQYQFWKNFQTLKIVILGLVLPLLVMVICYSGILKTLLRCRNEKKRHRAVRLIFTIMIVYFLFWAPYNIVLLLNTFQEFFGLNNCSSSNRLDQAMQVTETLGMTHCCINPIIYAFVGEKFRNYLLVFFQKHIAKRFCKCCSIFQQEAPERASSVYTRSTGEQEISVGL
Experimental: Binding competition between increasing concentrations of compounds and FITC-conjugated mouse anti-human CD4 clone RPA-4 (Biolegend, Amsterdam, Netherlands), PE-conjugated mouse anti-Human CXCR4 clone 12G5, and PE-conjugated mouse anti-human CCR5 clone 2D7 (BD Pharma, Aalst, Belgium) to U373-CD4-CXCR4 and U373-CD4-CCR5 cells was first tested by flow cytometry (FACSCanto). […] After 1 h of incubation at 4 °C, cells were washed with FACS buffer (1% bovine serum albumin, 0.1% N3Na in PBS, Sigma), and Mean Fluorescence Intensity (MFI) was measured. […] Internalization was stopped after 30 min by addition of NaN3 (0.1%) on ice. Cells were stained with anti-human CXCR4 clone 4G10 (BD, Belgium) or anti-human CCR5 (CD195) clone T21/8, (eBioscience, Asse, Belgium), Near-IR fluorescent reactive dye during 1 h at 4 °C, washed with FACS buffer, and a secondary PE-conjugated goat anti-mouse antibody (Jackson ImmunoResearch, West Grove, PA, USA).

[12] = tested on: non-B HIV-1 primary clinical isolate #1; conditions: non-B primary clinical isolate #1, 2 h
[13] = tested on: HIV-1 ADA-M; conditions: read-out: IC50 ADA-M; PBMCs, 7 days, P24 ELISA
[14] = tested on: HIV-1 IIIB; conditions: read-out: IC50 IIIB; PBMCs, 7 days, P24 ELISA
[15] = tested on: non-B HIV-1 primary clinical isolate #2; conditions: non-B primary clinical isolate #2, 2 h

Cc1cn([C@H]2C[C@H](N=[N+]=[N-])[C@@H](CO)O2)c(=O)[nH]c1=O [AZT, azidothymidine]
IC50 [1]: 6.7 nM
IC50 [2]: 7.07 nM
IC50 [3]: 7.31 nM
IC50 [4]: > 1000 nM

COc1cc(/C=C/c2ccc(O)cc2)cc(OC)c1 [Compound 1]
Anti-HIV activity [5]: inactive

CC(=O)Oc1ccc(/C=C/c2cc(OC(C)=O)cc(OC(C)=O)c2)cc1 [Compound 2]
Anti-HIV activity [5]: inactive

CC(C)=CCc1c(O)cc(O)c(CC=C(C)C)c1/C=C/c1ccccc1 [Compound 12]
Anti-HIV activity [5]: inactive

O=c1cc(-c2ccc(O)cc2O)oc2cc(O)cc(O)c12 [Compound 15, norartocarpetin]
CC50 [6]: > 500000 nM
IC50 [5]: 39000 ± 5000 nM

COC(=O)/C=C/c1ccc(O)c(OC)c1 [Compound 17, methyl ferulate]
IC50 [5]: 600000 ± 22000 nM

O=C1Nc2ccc(Cl)cc2[C@@](C#CC2CC2)(C(F)(F)F)O1 [EFV, efavirenz]
IC50 [1]: > 10 nM
IC50 [2]: 0.1 nM
IC50 [3]: 0.17 nM
IC50 [4]: > 10 nM

C[C@@]12OC(=O)C[C@@H]1[C@H]1Oc3c(c(O)cc(O)c3[C@@H]3c4ccc(O)cc4O[C@H](c4ccc(O)cc4)[C@H]3O)C[C@H]1O2 [cassiabrevone]
Inhibition of gp120/CD4 binding [7]: inhibited significantly gp120/CD4 binding activity in a dose-dependent manner
Inhibition of viral fusion [8]: inhibited viral fusion similarly to CE
IC50 [9]: 31000 nM

Oc1ccc([C@H]2Oc3cc(O)ccc3[C@@H](c3c(O)cc(O)c4c3O[C@H](c3ccc(O)cc3)[C@H](O)C4)[C@@H]2O)cc1 [guibourtinidol-(4α→8)-epiafzelechin]
Inhibition of gp120/CD4 binding [7]: not guibourtinidol-(4α→8)-epiafzelechin
Inhibition of viral fusion [8]: inhibited viral fusion similarly to CE
IC50 [9]: 42500 nM

CC1(C)CC[C@]2(C(=O)O)CC[C@]3(C)C(=CC[C@@H]4[C@@]5(C)CC[C@H](O)C(C)(C)[C@@H]5CC[C@]43C)[C@@H]2C1 [oleanolic acid]
IC50 [9]: 34900 ± 9090 nM

CCCCCCCCCCCCCCCC(=O)O [palmitic acid]
IC50 [9]: 87500 ± 16100 nM

Cc1nnc(C(=O)NC(C)(C)c2nc(C(=O)NCc3ccc(F)cc3)c(O)c(=O)n2C)o1 [raltegravir, reference compound]
Inhibitory effect when added after infection [10]: inhibited HIV-1 infection

O=C1c2c(O)cc(O)cc2OC(c2ccc(O)c(O)c2)C1O (centres unmarked) [taxifolin]
IC50 [9]: 240000 ± 3000 nM

CCL5: chemokine C-C motif chemokine ligand 5, positive control for binding CCR5
Inhibition of CCR5 binding [11]: inhibited

enfuvirtide
IC50 [12]: 8.25 nM
IC50 [13]: 0.67 nM
IC50 [14]: 0.64 nM
IC50 [15]: 1.93 nM
